Laboratory results: ChEMBL document CHEMBL2331098, “Unprecedented polyketides from a marine sponge-associated Stachylidium sp” (J Nat Prod, 2013)
Activity calls are given as the source filed them.

Experiments:
Adipocyte [1] = test: Induction of glucose uptake in mouse primary adipocyte cells at 100 uM; type: functional, cell-based
NCI-H460 = test: Cytotoxicity against human NCI-H460 cells at 100 uM; type: functional, cell-based
Priestia megaterium = test: Antimicrobial activity against Bacillus megaterium; type: functional, organism-based
Microbotryum violaceum = test: Antimicrobial activity against Microbotryum violaceum; type: functional, organism-based
Aspergillus ruber = test: Antimicrobial activity against Eurotium rubrum; type: functional, organism-based
[2] = target: T1, Peroxisome proliferator-activated receptor (Homo sapiens) (UniProt P37231+Q07869+Q03181); test: Activity at PPAR (unknown origin) by PPAR ligand assay; type: protein assay
3T3-L1 = test: Induction of glucose uptake in mouse 3T3L1 cells at 100 uM; type: functional, cell-based
MCF7 = test: Cytotoxicity against human MCF7 cells at 100 uM; type: functional, cell-based
SF-268 = test: Cytotoxicity against human SF268 cells at 100 uM; type: functional, cell-based
[3] = target: T1, Peroxisome proliferator-activated receptor (Homo sapiens); test: Activity at PPAR (unknown origin) by PPAR co-activator assay; type: protein assay
Adipocyte [4] = test: Induction of glucose uptake in rat primary adipocyte cells at 100 uM; type: functional, cell-based
Mycotypha microspora = test: Antimicrobial activity against Mycotypha microspora; type: functional, organism-based
Escherichia coli = test: Antimicrobial activity against Escherichia coli; type: functional, organism-based
[Chlorella] fusca = Antimicrobial activity against Chlorella fusca; type: functional, organism-based; details: Scenedesmus fuscus
[5] = target: Tyrosine-protein phosphatase non-receptor type 1 (Homo sapiens) (UniProt P18031); test: Inhibition of PTP1B (unknown origin)
Sequence of Tyrosine-protein phosphatase non-receptor type 1 (Homo sapiens) (P18031 whole entry): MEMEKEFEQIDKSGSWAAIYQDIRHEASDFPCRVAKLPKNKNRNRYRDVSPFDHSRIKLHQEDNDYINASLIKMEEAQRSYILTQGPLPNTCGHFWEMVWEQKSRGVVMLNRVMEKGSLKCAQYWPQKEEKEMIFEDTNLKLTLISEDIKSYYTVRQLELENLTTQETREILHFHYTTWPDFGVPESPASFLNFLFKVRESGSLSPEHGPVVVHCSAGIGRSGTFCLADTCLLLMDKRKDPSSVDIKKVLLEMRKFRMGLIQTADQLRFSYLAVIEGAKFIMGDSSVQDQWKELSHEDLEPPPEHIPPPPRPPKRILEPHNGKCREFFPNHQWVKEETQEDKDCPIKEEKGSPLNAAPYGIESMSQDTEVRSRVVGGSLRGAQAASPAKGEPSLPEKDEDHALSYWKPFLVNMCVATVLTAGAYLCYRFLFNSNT

Homo sapiens = species: Homo sapiens; test: Inhibition of NF-kappaB protein complex (unknown origin) at 100 uM

COc1c(C)c(O)cc2c1C(O)CC2=O (configuration not stated)
inactive: inhibition (Adipocyte [1]) | Activity (NCI-H460) | Activity (Priestia megaterium) | Activity (Microbotryum violaceum) | Activity (Aspergillus ruber) | Activity [2] | inhibition (3T3-L1) | Activity (MCF7) | Activity (SF-268) | Activity [3] | inhibition (Adipocyte [4]) | Activity (Mycotypha microspora) | Activity (Escherichia coli) | Activity ([Chlorella] fusca) | inhibition [5] | Activity (Homo sapiens)

CCc1cc(O)c(C)c(=O)o1
inactive: inhibition (Adipocyte [1]) | Activity (Priestia megaterium) | Activity (Microbotryum violaceum) | Activity (Aspergillus ruber) | Activity [2] | inhibition (3T3-L1) | Activity [3] | inhibition (Adipocyte [4]) | Activity (Mycotypha microspora) | Activity (Escherichia coli) | Activity ([Chlorella] fusca) | inhibition [5]

COCc1c(CO)cc(O)c(C)c1OC
inactive: Activity (Priestia megaterium) | Activity (Microbotryum violaceum) | Activity (Aspergillus ruber) | Activity (Mycotypha microspora) | Activity (Escherichia coli) | Activity ([Chlorella] fusca)

COc1c(C)c(OC/C=C(\C)CCC=C(C)C)cc2c1[C@H](OC)O[C@@]2(C)OC
inactive: Activity (NCI-H460) | Activity (Priestia megaterium) | Activity (Microbotryum violaceum) | Activity (Aspergillus ruber) | Activity (MCF7) | Activity (SF-268) | Activity (Mycotypha microspora) | Activity (Escherichia coli) | Activity ([Chlorella] fusca) | Activity (Homo sapiens)

COc1c(C)c(OC/C=C(\C)CCC=C(C)C)cc2c1[C@H](OC)O[C@]2(C)OC
inactive: Activity (Priestia megaterium) | Activity (Microbotryum violaceum) | Activity (Aspergillus ruber) | Activity (Mycotypha microspora) | Activity (Escherichia coli) | Activity ([Chlorella] fusca) | Activity (Homo sapiens)

CCc1cc(O)c(C)c(OC)c1CC(C)C(=O)CC(O)CC (configuration not stated)
inactive: Activity (Priestia megaterium) | Activity (Microbotryum violaceum) | Activity (Aspergillus ruber) | Activity (Mycotypha microspora) | Activity (Escherichia coli) | Activity ([Chlorella] fusca)
